In ChEMBL document CHEMBL1649085:

Experiments:
Type in all cases: ADME, organism-based
[1] = Tmax in rat at 10 mg/kg, po; set-up: dose 10 mg/kg, route oral; details: in vivo
[2] = Ratio of drug level in brain to plasma in rat at 10 mg/kg, po; set-up: dose 10 mg/kg, route oral
Brain = assay: Drug uptake in rat brain at 10 mg/kg, po; set-up: dose 10 mg/kg, route oral; details: in vivo, read-out: Drug uptake
[3] = Cmax in rat at 10 mg/kg, po; set-up: dose 10 mg/kg, route oral; details: in vivo
Plasma = assay: Drug uptake in rat plasma at 10 mg/kg, po; set-up: dose 10 mg/kg, route oral; details: in vivo
[4] = AUC (0 to time) in rat at 10 mg/kg, po; set-up: dose 10 mg/kg, route oral; details: plasma
[5] = Oral bioavailability in rat at 10 mg/kg, po; details: in vivo

Compound | Tmax [1] | BPR [2] | concentration (Brain) | Cmax [3] | concentration (Plasma) | AUC(0-t) [4] | bioavailability [5]
O=C(O)c1cc(-c2cccc(COc3ccc4c(c3)CN(C3CCCC3)C4=O)c2)ccc1Cl | 1.33 h | 0.3 | 3.8 µM | 14.4 µM | 12.3 µM | 106 µM·h | 40%
O=C(O)c1cc(-c2cccc(COc3ccc4c(=O)n(C5CCCC5)sc4c3)c2)ccc1Cl | 1.83 h | 4.8 | 4.8 µM | 4.1 µM | 1 µM | 43.3 µM·h | –
Cc1c(OCc2cccc(-c3ccc(C(=O)O)cc3)c2)cc2c(c1C)C(=O)C(C1CCCC1)C2 (stereo not drawn) | 2 h | – | – | 0.097 µM | 0.027 µM | 0.281 µM·h | 33%
